For 10 compounds, TGI results are on record in PubChem BioAssay (NCI).

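48-hour exposure; five concentrations; linearly interpolated endpoints. The concentration for full growth arrest is given as TGI.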

Among the test systems are 786-0 renal; XF 498 CNS; SNB-78 CNS; M19-MEL melanoma; DLD-1 colon; KM20L2 colon; IGROV1 ovarian; RXF-631 renal; HOP-18 NSCLC; OVCAR-5 ovarian; SR leukemia; LXFL 529 NSCLC; DMS 273 small cell lung; DMS 114 small cell lung; HL-60(TB) leukemia; MDA-MB-435; MDA-N.
Holding throughout (experiment): NCI anticancer screen, dose series, 48 h

For `CCC1CN2CCC3(c4ccccc4)CC(C(=O)OC)=CC1C23` (configuration not stated), the TGI was 31.9 µM in the assay with 786-0 renal; 18.2 µM with XF 498 CNS; 44 µM in the assay on SNB-78 CNS; 31.1 µM in the assay on M19-MEL melanoma; 39 µM with DLD-1 colon; 30.3 µM in the assay with KM20L2 colon. In addition, the TGI in the assay on IGROV1 ovarian is 47.3 µM; in the assay on RXF-631 renal, 28.5 µM; in the assay with HOP-18 NSCLC it was 35.1 µM; in the assay with OVCAR-5 ovarian it was 20.6 µM; in the assay on SR leukemia, over 100 µM; in the assay with LXFL 529 NSCLC, 28.7 µM.
As to `CCOC(OC1=C(C#N)CCCC1)C(C)[Se]c1ccccc1` (configuration not stated), the TGI with 786-0 renal is 31.4 µM; with XF 498 CNS, 57 µM; in the assay on DMS 273 small cell lung it was 33.7 µM; in the assay on SNB-78 CNS, over 100 µM; with M19-MEL melanoma it was 96.5 µM; in the assay with DLD-1 colon, over 100 µM. For the same compound, the TGI in the assay on KM20L2 colon was over 100 µM; in the assay with IGROV1 ovarian, over 100 µM; with DMS 114 small cell lung it was 15.4 µM; in the assay on HL-60(TB) leukemia, 49.4 µM; in the assay with HOP-18 NSCLC, over 100 µM; in the assay with OVCAR-5 ovarian it was over 100 µM. Further, the TGI in the assay on SR leukemia was 63.8 µM; with LXFL 529 NSCLC, over 100 µM.
Consider `O=C(CC1C(=O)c2ccccc2C1=C1C(=O)c2ccccc2C1=O)c1ccccc1` (configuration not stated), for which the TGI with 786-0 renal, with XF 498 CNS, in the assay on DMS 273 small cell lung, in the assay on SNB-78 CNS, with M19-MEL melanoma and in the assay on DLD-1 colon was over 100 µM in each case. Also, the TGI in the assay on KM20L2 colon, in the assay with IGROV1 ovarian, with DMS 114 small cell lung, in the assay on HL-60(TB) leukemia, in the assay on HOP-18 NSCLC and in the assay with OVCAR-5 ovarian was over 100 µM in each case. For the same compound, the TGI in the assay with LXFL 529 NSCLC was over 100 µM.
On to `CC(C)(C)S(=O)OC12CC3CC(CC(C3)C1)C2` (configuration not stated), for which the TGI in the assay on 786-0 renal, in the assay with XF 498 CNS, in the assay with DMS 273 small cell lung, in the assay on SNB-78 CNS, in the assay on M19-MEL melanoma and in the assay with KM20L2 colon was over 100 µM in each case. Besides, the TGI with IGROV1 ovarian, with DMS 114 small cell lung, in the assay on OVCAR-5 ovarian, in the assay on SR leukemia and in the assay with LXFL 529 NSCLC was over 100 µM each time.
For `COC(=O)c1ccc(NCc2cc(O)ccc2O)cc1`, the TGI in the assay with 786-0 renal is 22.3 µM; in the assay with XF 498 CNS it was 9.63 µM; in the assay on DMS 273 small cell lung, over 54.8 µM; with SNB-78 CNS, 52.1 µM; in the assay with M19-MEL melanoma, 33.7 µM; in the assay with DLD-1 colon it was 40.8 µM. Also, the TGI is over 72.7 µM in the assay on KM20L2 colon; 17.3 µM in the assay with MDA-MB-435; 24.5 µM in the assay with IGROV1 ovarian; 8.04 µM in the assay on DMS 114 small cell lung; 8.58 µM in the assay with HL-60(TB) leukemia; 27.4 µM with HOP-18 NSCLC. The TGI is 29.1 µM in the assay on OVCAR-5 ovarian, over 32.4 µM in the assay on SR leukemia, 17.9 µM in the assay on LXFL 529 NSCLC and 19 µM in the assay with MDA-N.
Take `CC(=O)C1=CCC2c3[nH]c4ccccc4c3CCN2C1` (configuration not stated): the TGI in the assay on 786-0 renal, in the assay on XF 498 CNS, with DMS 273 small cell lung, in the assay on SNB-78 CNS, with M19-MEL melanoma and in the assay with DLD-1 colon was over 100 µM each time. Moreover, the TGI in the assay on KM20L2 colon is 46.2 µM; in the assay on IGROV1 ovarian it was over 100 µM; in the assay with HL-60(TB) leukemia, over 100 µM; with RXF-631 renal, over 100 µM; in the assay with HOP-18 NSCLC, over 100 µM; in the assay with OVCAR-5 ovarian, over 100 µM. In addition, the TGI with SR leukemia and with LXFL 529 NSCLC was over 100 µM each time.
As to `NC(=O)c1cccc([C@@H]2O[C@H](CO)[C@@H](O)[C@H]2O)c1`, the TGI was 12.3 µM with 786-0 renal; 7 µM with XF 498 CNS; 22.9 µM in the assay with DMS 273 small cell lung; 24.4 µM in the assay with SNB-78 CNS; 60.7 µM with M19-MEL melanoma; 35.9 µM in the assay on DLD-1 colon. The TGI with KM20L2 colon was over 94.1 µM; in the assay with MDA-MB-435, over 90.3 µM; in the assay with IGROV1 ovarian, 85.6 µM; in the assay with DMS 114 small cell lung, 32.7 µM; in the assay on HL-60(TB) leukemia it was 10.2 µM; in the assay with RXF-631 renal it was 43.2 µM. The TGI in the assay with HOP-18 NSCLC is 68.6 µM; in the assay with OVCAR-5 ovarian, over 100 µM; with SR leukemia, over 82.2 µM; in the assay with MDA-N it was over 100 µM.
`Cc1ccc(S(=O)(=O)c2c(N)n(CCN(C)C)c3nc4ccccc4nc23)cc1`: the TGI in the assay with 786-0 renal, in the assay on XF 498 CNS, in the assay with DMS 273 small cell lung, with SNB-78 CNS, with M19-MEL melanoma and with DLD-1 colon was over 100 µM throughout. The TGI with IGROV1 ovarian, in the assay on DMS 114 small cell lung, with HL-60(TB) leukemia, in the assay on HOP-18 NSCLC, with OVCAR-5 ovarian and in the assay with LXFL 529 NSCLC was over 100 µM each time.
Consider `O=C1Oc2cc3c(c4cccc1c24)O[C@H](c1ccccc1)[C@@H](c1ccccc1)[C@@H]3c1ccc(Cl)cc1`, for which the TGI in the assay on 786-0 renal was over 100 µM; in the assay on MDA-MB-435, over 100 µM; with IGROV1 ovarian it was 77.4 µM; in the assay on HL-60(TB) leukemia, over 100 µM; in the assay with OVCAR-5 ovarian, over 100 µM; in the assay on SR leukemia, 87.2 µM. Besides, in the assay with MDA-N, the TGI was over 100 µM.
`S=c1[nH]nc(NNc2ccccc2)n1Nc1ccccc1`: the TGI was over 100 µM with 786-0 renal; over 100 µM with MDA-MB-435; over 100 µM in the assay with IGROV1 ovarian; 57.2 µM in the assay with HL-60(TB) leukemia; over 100 µM with OVCAR-5 ovarian; over 91.1 µM in the assay with SR leukemia. In the assay with MDA-N, the TGI is over 100 µM.
